Experiments:
Experiment in all cases: relative viability (nuclei count vs DMSO), 5 days (fraction); higher = more cells survive
Axitinib + Trametinib = compound: CNC(=O)c1ccccc1Sc1ccc2c(/C=C/c3ccccn3)n[nH]c2c1 [Axitinib] + CC(=O)Nc1cccc(-n2c(=O)n(C3CC3)c(=O)c3c(Nc4ccc(I)cc4F)n(C)c(=O)c(C)c32)c1 [Trametinib] (partner 0.02 µM)
How it was run: (§1)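 Lung cancer cell lines in 1536-well plates got either a single drug or a fixed anchor-drug dose together with five library-drug doses (not always all listed) in √10 steps, by pin tool, on the day after seeding. Nuclei were counted after 5 days, and relative viability is the treated-to-vehicle ratio of nuclei counts. Values are medians of duplicate plates.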

[1] = compound: CC1=CC=C(C=C1)C(=O)CN2C3=C(CCCC3)SC2=N [Pifithrin_alpha] + Cc1cc(Nc2cc(N3CCN(C)CC3)nc(Sc3ccc(NC(=O)C4CC4)cc3)n2)n[nH]1 [Tozasertib] (partner 0.1 µM)
How it was run: as §1

Axitinib + Pemetrexed = compound: CNC(=O)c1ccccc1Sc1ccc2c(/C=C/c3ccccn3)n[nH]c2c1 [Axitinib] + Nc1nc2[nH]cc(CCc3ccc(C(=O)N[C@@H](CCC(=O)O)C(=O)O)cc3)c2c(=O)[nH]1 [Pemetrexed] (partner 0.2 µM)
How it was run: as §1

Bemcentinib + Dasatinib = compound: Nc1nc(Nc2ccc3c(c2)CC[C@@H](N2CCCC2)CC3)nn1-c1cc2c(nn1)-c1ccccc1CCC2 [Bemcentinib] + Cc1nc(Nc2ncc(C(=O)Nc3c(C)cccc3Cl)s2)cc(N2CCN(CCO)CC2)n1 [Dasatinib] (partner 0.075 µM)
How it was run: as §1

Row | Cell Line | relative viability (Axitinib + Trametinib; first compound 0.005 µM) | relative viability (Axitinib + Trametinib; first compound 0.01581 µM) | relative viability (Axitinib + Trametinib; first compound 0.05 µM) | relative viability (Axitinib + Trametinib; first compound 0.1581 µM) | relative viability (Axitinib + Trametinib; first compound 0.5 µM) | relative viability ([1]; first compound 1 µM) | relative viability ([1]; first compound 3.162 µM) | relative viability ([1]; first compound 10 µM) | relative viability ([1]; first compound 31.62 µM) | relative viability ([1]; first compound 100 µM) | relative viability (Axitinib + Pemetrexed; first compound 0.005 µM) | relative viability (Axitinib + Pemetrexed; first compound 0.01581 µM) | relative viability (Axitinib + Pemetrexed; first compound 0.05 µM) | relative viability (Axitinib + Pemetrexed; first compound 0.1581 µM) | relative viability (Axitinib + Pemetrexed; first compound 0.5 µM) | relative viability (Bemcentinib + Dasatinib; first compound 0.04 µM) | relative viability (Bemcentinib + Dasatinib; first compound 0.1265 µM) | relative viability (Bemcentinib + Dasatinib; first compound 0.4 µM) | relative viability (Bemcentinib + Dasatinib; first compound 1.265 µM) | relative viability (Bemcentinib + Dasatinib; first compound 4 µM)
1 | HCC-827 | 0.572 | 0.519 | 0.552 | 0.548 | 0.518 | 0.422 | 0.522 | 0.381 | 0.337 | 0.353 | 0.228 | 0.158 | 0.279 | 0.296 | 0.275 | 0.305 | 0.385 | 0.273 | 0.4 | 0.3
2 | HOP-62 | 0.404 | 0.351 | 0.404 | 0.431 | 0.454 | 0.385 | 0.584 | 0.355 | 0.358 | 0.344 | 0.378 | 0.328 | 0.31 | 0.41 | 0.482 | 0.639 | 0.656 | 0.768 | 0.552 | 0.718
3 | LC-2-ad | 0.953 | 0.864 | 0.885 | 0.873 | 0.871 |  | 0.357 | 0.379 |  | 0.311 | 0.261 | 0.257 | 0.268 | 0.271 | 0.277 | 0.308 | 0.597 | 0.659 | 0.669 | 0.557
4 | LCLC-97TM1 | 0.18 | 0.212 | 0.184 | 0.202 | 0.187 | 0.293 | 0.178 | 0.177 | 0.148 | 0.217 | 0.203 | 0.188 | 0.176 | 0.186 | 0.181 | 0.851 | 0.818 | 0.736 | 0.851 | 0.975
5 | LCLC-103H | 0.737 | 0.651 | 0.685 | 0.705 | 0.693 | 0.462 | 0.452 | 0.485 | 0.396 | 0.46 | 0.507 | 0.443 | 0.496 | 0.477 | 0.526 | 0.419 | 0.192 | 0.478 | 0.393 | 0.531
6 | LK-2 | 0.773 | 0.631 | 0.515 | 0.726 | 0.547 | 0.188 | 0.134 | 0.146 |  | 0.152 | 0.26 | 0.216 | 0.234 | 0.258 | 0.242 | 0.248 | 0.246 | 0.31 | 0.27 | 0.349
7 | LOU-NH91 | 0.778 | 0.732 | 0.807 | 0.766 | 0.818 | 0.663 | 0.612 | 0.637 | 0.543 | 0.578 | 0.392 | 0.402 | 0.406 | 0.421 | 0.395 | 0.508 | 0.568 | 0.59 | 0.335 | 0.61
8 | LU99A | 0.547 | 0.463 | 0.534 | 0.541 | 0.511 | 0.304 | 0.259 | 0.31 | 0.286 | 0.25 | 0.196 | 0.203 | 0.182 | 0.175 | 0.204 | 0.489 | 0.568 | 0.519 | 0.661 | 0.573
9 | LXF-289 | 0.703 | 0.644 | 0.683 | 0.684 | 0.701 | 0.209 | 0.172 | 0.174 | 0.147 | 0.14 | 1.01 | 0.91 | 0.968 | 0.888 | 0.982 | 0.206 | 0.178 | 0.212 | 0.241 | 0.187
10 | NCI-H23 | 0.45 | 0.373 | 0.433 | 0.405 | 0.368 | 0.304 | 0.299 | 0.316 |  | 0.258 | 0.678 | 0.751 | 0.583 | 0.665 | 0.713 | 0.476 | 0.884 | 0.985 | 0.632 | 0.828
11 | NCI-H322M | 0.577 | 0.458 | 0.48 | 0.467 | 0.486 | 0.51 | 0.483 | 0.493 | 0.449 | 0.486 | 0.586 | 0.691 | 0.679 | 0.628 | 0.627 | 0.229 | 0.279 | 0.251 | 0.267 | 0.258
12 | NCI-H358 | 0.137 | 0.13 | 0.144 | 0.125 | 0.14 | 0.112 | 0.0941 | 0.101 | 0.104 | 0.0923 | 0.166 | 0.154 | 0.182 | 0.173 | 0.181 | 0.153 | 0.146 | 0.148 | 0.163 | 0.171
13 | NCI-H441 | 0.521 | 0.404 | 0.331 | 0.485 | 0.567 | 0.483 | 0.652 | 0.401 |  | 0.451 | 0.271 | 0.305 | 0.232 | 0.248 | 0.265 | 0.536 | 0.773 | 0.862 | 0.649 | 0.609
14 | NCI-H727 | 0.375 | 0.369 | 0.402 | 0.377 | 0.414 | 0.505 | 0.657 | 0.52 |  | 0.579 |  |  |  |  |  | 0.394 | 0.4 | 0.319 | 0.337 | 0.441
15 | NCI-H1563 |  |  |  |  |  |  |  |  |  |  | 0.844 | 0.716 | 0.917 | 0.729 | 0.721 | 0.403 | 0.429 | 0.448 | 0.413 | 0.444
16 | NCI-H1623 |  |  |  |  |  | 0.42 | 0.528 | 0.432 | 0.358 | 0.349 |  |  |  |  |  | 0.51 | 0.504 | 0.528 | 0.639 | 0.473
17 | NCI-H1648 | 0.622 | 0.553 | 0.335 | 0.525 | 0.509 | 0.592 | 0.513 | 0.393 | 0.47 | 0.421 | 0.726 | 0.764 | 0.702 | 0.958 | 0.758 |  |  |  |  | 
18 | NCI-H1792 | 0.618 | 0.363 | 0.499 | 0.494 | 0.498 |  |  |  |  |  | 1.05 | 0.784 | 0.786 | 0.816 | 0.792 | 0.859 | 0.956 | 1.17 | 0.91 | 0.873
